Reference: patent US20260078120A1, “SUBSTITUTED PYRIDOPYRIMIDINONES” (MIRATI THERAPEUTICS, INC., priority 2022, published 2026)
Like-named read-outs stand apart in the source and are kept apart here.

How the values were obtained:
Assay type in all cases: cell-based
[1] = tested on: T47D (PI3Kα H1047R mutant) cells; assay: Inhibition of pAKT formation, alphaLISA SureFire Ultra AKT 1/2/3 (pS473), T47D cells; details: Homo sapiens, T47D, T47D (PI3Kα H1047R mutant) cells; inhibition of pAKT (pS473) formation; approximately one hour or 24 hours treatment; read-out: T47D pAKT (H1047R mutant) IC50
In short: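 T47D cells (12,000/well) in HBSS were dosed with compound at 10 concentrations (10.4 μM top, 1:4 dilutions) for about 1 h or 24 h at 37 °C, then lysed. pS473 AKT was read by alphaLISA. Signals were normalized to alpelisib and DMSO controls, and IC50 came from a four-parameter fit.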

[2] = tested on: T47D (PI3Kα H1047R mutant) cells; assay: CellTiter-Glo 2.0 luminescent cell viability assay, 72 hours, T47D cells; details: T47D (PI3Kα H1047R mutant) cells, CellTiter-Glo, approximately 72 hours, read-out: T47D (H1047R mutant) Viability IC50
In short: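 Cells seeded at 1000 per well overnight were dosed with a 10-concentration, 1:4 series starting at 10 µM and incubated ~72 h at 37° C. Viability was read by CellTiter-Glo 2.0 luminescence after 30 min at room temperature. IC50 came from four-parameter fits of percent vehicle control.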

[3] = tested on: SKBR3 (PI3Kα wild type) cells; assay: CellTiter-Glo 2.0 luminescent cell viability assay, 72 hours, SKBR3 cells; details: SKBR3 (PI3Kα wild type) cells, CellTiter-Glo, approximately 72 hours, read-out: SKBR3 (WT) Viability IC50
In short: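 Viability measured via CTG luminescence following roughly 72 hours of compound exposure at 37° C. Dosing used a 10 um starting concentration diluted 1:4 over 10 points; percent-of-vehicle data fitted with a variable-slope four-parameter model for IC50.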

| SMILES | IC50 [1] | IC50 ([2]; Homo sapiens, T47D, 72 h) | IC50 ([3]; Homo sapiens, SK-BR-3, 72 h) | IC50 [2] | IC50 [3] |
| --- | --- | --- | --- | --- | --- |
| Cc1cc([C@@H](C)Nc2ccccc2C(=O)O)c2nc(N3CC(C)C(F)(F)C3)c(C#N)c(=O)n2c1 (stereo partly drawn) [Example 10-44, 2-(((1R)-1-(3-cyano-2-(3,3-difluoro-4-methylpyrrolidin-1-yl)-7-methyl-4-oxo-4H-pyrido[1,2-a]pyrimidin-9-yl)ethyl)amino)benzoic acid] | 1.47 nM | 62.5 nM | 5030 nM |  |  |
| COC1CCN(c2nc3c([C@@H](C)Nc4ccccc4C(=O)O)cc(C)cn3c(=O)c2C#N)CC1 [Example 10-123, (R)-2-((1-(3-cyano-2-(4-methoxypiperidin-1-yl)-7-methyl-4-oxo-4H-pyrido[1,2-a]pyrimidin-9-yl)ethyl)amino)benzoic acid] | 2.39 nM | 104 nM | > 10000 nM |  |  |
| Cc1cc([C@@H](C)Nc2ccc(Cl)nc2C(=O)O)c2nc(N3Cc4ccccc4C3)c(C#N)c(=O)n2c1 [Example 10-14, (R)-6-chloro-3-((1-(3-cyano-2-(isoindolin-2-yl)-7-methyl-4-oxo-4H-pyrido[1,2-a]pyrimidin-9-yl)ethyl)amino)picolinic acid] | 2.34 nM | 33.1 nM | 8790 nM |  |  |
| Cc1cc([C@@H](C)Nc2ccccc2C(=O)O)c2nc(N3CCN(c4ccccn4)CC3)c(C)c(=O)n2c1 [Example 10-34, (R)-2-((1-(3,7-dimethyl-4-oxo-2-(4-(pyridin-2-yl)piperazin-1-yl)-4H-pyrido[1,2-a]pyrimidin-9-yl)ethyl)amino)benzoic acid] | 1.38 nM | 56.6 nM | > 10000 nM |  |  |
| Cc1cc([C@@H](C)Nc2ccccc2C(=O)O)c2nc(N3CCN(c4ccc(C#N)cc4C)CC3)c(C)c(=O)n2c1 [Example 10-77, (R)-2-((1-(2-(4-(4-cyano-2-methylphenyl)piperazin-1-yl)-3,7-dimethyl-4-oxo-4H-pyrido[1,2-a]pyrimidin-9-yl)ethyl)amino)benzoic acid] | 3.8 nM | 107 nM | > 10000 nM |  |  |
| Cc1cc([C@@H](C)Nc2ccccc2C(=O)O)c2nc(N3Cc4cc(F)c(F)cc4C3)c(C)c(=O)n2c1 [Example 10-140, (R)-2-((1-(2-(5,6-difluoroisoindolin-2-yl)-3,7-dimethyl-4-oxo-4H-pyrido[1,2-a]pyrimidin-9-yl)ethyl)amino)benzoic acid] | 572 nM |  | > 10000 nM | 75.8 nM |  |
| Cc1cc([C@@H](C)Nc2ccccc2C(=O)O)c2nc(N3CCC(F)(F)C3)c(C#N)c(=O)n2c1 [Example 10-75, (R)-2-((1-(3-cyano-2-(3,3-difluoropyrrolidin-1-yl)-7-methyl-4-oxo-4H-pyrido[1,2-a]pyrimidin-9-yl)ethyl)amino)benzoic acid] | 1.05 nM | 110 nM | > 10000 nM |  |  |
| Cc1cc([C@@H](C)Nc2ccccc2C(=O)O)c2nc(N3CCN(CC(F)F)CC3)c(C)c(=O)n2c1 [Example 10-91, (R)-2-((1-(2-(4-(2,2-difluoroethyl)piperazin-1-yl)-3,7-dimethyl-4-oxo-4H-pyrido[1,2-a]pyrimidin-9-yl)ethyl)amino)benzoic acid] | 2.55 nM | 82.5 nM | > 10000 nM |  |  |
| Cc1cc([C@@H](C)Nc2ccccc2C(=O)O)c2nc(N3CC4CCC3CC4)c(C#N)c(=O)n2c1 [Example 10-97, (R)-2-((1-(2-(2-azabicyclo[2.2.2]octan-2-yl)-3-cyano-7-methyl-4-oxo-4H-pyrido[1,2-a]pyrimidin-9-yl)ethyl)amino)benzoic acid] | 2.04 nM | 85.2 nM | > 10000 nM |  |  |
| Cc1cc([C@@H](C)Nc2ccccc2C(=O)O)c2nc(N3CCC(F)(F)[C@H]3C)c(C#N)c(=O)n2c1 [Example 10-32, 2-(((R)-1-(3-cyano-2-((R)-3,3-difluoro-2-methylpyrrolidin-1-yl)-7-methyl-4-oxo-4H-pyrido[1,2-a]pyrimidin-9-yl)ethyl)amino)benzoic acid] | 5.78 nM | 67.3 nM | > 10000 nM |  |  |
| COC1CCN(c2nc3c([C@@H](C)Nc4ccccc4C(=O)O)cc(C)cn3c(=O)c2C)CC1(F)F (stereo partly drawn) [Example 10-116, 2-(((1R)-1-(2-(3,3-difluoro-4-methoxypiperidin-1-yl)-3,7-dimethyl-4-oxo-4H-pyrido[1,2-a]pyrimidin-9-yl)ethyl)amino)benzoic acid] | 1.58 nM | 100 nM | > 10000 nM |  |  |
| Cc1cc([C@@H](C)Nc2ccccc2C(=O)O)c2nc(N3CCC4(CC3)COC4)c(C)c(=O)n2c1 [Example 10-111, (R)-2-((1-(3,7-dimethyl-4-oxo-2-(2-oxa-7-azaspiro[3.5]nonan-7-yl)-4H-pyrido[1,2-a]pyrimidin-9-yl)ethyl)amino)benzoic acid] | 4.82 nM | 96.4 nM | > 10000 nM |  |  |
| Cc1cc([C@@H](C)Nc2ccccc2C(=O)O)c2nc(N3CCC4(CC4)C(F)(F)C3)c(C)c(=O)n2c1 [Example 10-107, (R)-2-((1-(2-(4,4-difluoro-6-azaspiro[2.5]octan-6-yl)-3,R7-dimethyl-4-oxo-4H-pyrido[1,2-a]pyrimidin-9-yl)ethyl)amino)benzoic acid] | 6.72 nM | 92.5 nM | > 10000 nM |  |  |
| Cc1cc([C@@H](C)Nc2ccccc2C(=O)O)c2nc(N3CC4CC3C(F)(F)C4)c(C)c(=O)n2c1 (stereo partly drawn) [Example 10-141, 2-(((1R)-1-(2-(6,6-difluoro-2-azabicyclo[2.2.1]heptan-2-yl)-3,7-dimethyl-4-oxo-4H-pyrido[1,2-a]pyrimidin-9-yl)ethyl)amino)benzoic acid] | 4.1 nM | 163 nM | > 10000 nM |  |  |
| Cc1cc([C@@H](C)Nc2ccc(F)nc2C(=O)O)c2nc(N3Cc4ccccc4C3)c(C)c(=O)n2c1 [Example 10-29, (R)-6-fluoro-3-((1-(2-(isoindolin-2-yl)-3,7-dimethyl-4-oxo-4H-pyrido[1,2-a]pyrimidin-9-yl)ethyl)amino)picolinic acid] | 0.54 nM |  |  | 53.9 nM | > 10000 nM |
| Cc1cc([C@@H](C)Nc2ccccc2C(=O)O)c2nc(N3CCN(C(=O)c4ccc(Cl)cc4)CC3)c(C)c(=O)n2c1 [Example 10-82, (R)-2-((1-(2-(4-(4-chlorobenzoyl)piperazin-1-yl)-3,7-dimethyl-4-oxo-4H-pyrido[1,2-a]pyrimidin-9-yl)ethyl)amino)benzoic acid] | 2.6 nM | 78.5 nM | 7910 nM |  |  |
| Cc1cc([C@@H](C)Nc2ccccc2C(=O)O)c2nc(N3CCN(c4ccc(C#N)cc4)CC3)c(C)c(=O)n2c1 [Example 10-1, (R)-2-((1-(2-(4-(4-cyanophenyl)piperazin-1-yl)-3.7-dimethyl-4-oxo-4H-pyrido[1,2-a]pyrimidin-9-yl)ethyl)amino)benzoic acid] | 2.27 nM | 38.5 nM | 9890 nM |  |  |
| Cc1cc([C@@H](C)Nc2ccccc2C(=O)O)c2nc(C3CCN(c4ccc(C#N)cc4)CC3)c(C)c(=O)n2c1 [Example 10-120, (R)-2-((1-(2-(1-(4-cyanophenyl)piperidin-4-yl)-3,7-dimethyl-4-oxo-4H-pyrido[1,2-a]pyrimidin-9-yl)ethyl)amino)benzoic acid] | 2.25 nM | 103 nM | > 10000 nM |  |  |
| Cc1cc([C@@H](C)Nc2ccc(C)nc2C(=O)O)c2nc(NC3CCC3)c(C#N)c(=O)n2c1 [Example 10-115, (R)-3-((1-(3-cyano-2-(cyclobutylamino)-7-methyl-4-oxo-4H-pyrido[1,2-a]pyrimidin-9-yl)ethyl)amino)-6-methylpicolinic acid] | 58.4 nM | 98.8 nM | > 10000 nM |  |  |
